# Data from paper PMC6010047, “Design, synthesis and biological evaluation of novel hydroxy-phenyl-1H-benzimidazoles as radical scavengers and UV-protective agents” (Journal of Enzyme Inhibition and Medicinal Chemistry, 2017).
# Read-outs that look alike come from different tables or passages of the source.
# Legend:
# [1] = In vitro evaluation of filtering parameters of formulations on PMMA plates (Diffey and Robson); settings: for SPF / UVA/UVB / UVAPF / λc (critical wavelength): 3% (w/w) in O/W formulation, PMMA plates
# From the text: It was decided to use a standard formulation oil in water (O/W).
# In vitro approaches consist in applying a thin film of sunscreen product on an artificial substrate and test, via spectrophotometric measures, the amount of UV radiation passing through the film. Several different artificial substrates are available for this type of analysis; the substrate should be as closed as possible to the physical characteristics of the skin. Among the substrates available for these purposes, the substrate used in this study to analyse the sunscreen products were PMMA plates. This substrate is easily handled and can be supplied with a reproducible roughness. WW5 PMMA plates have been purchased from Schonberg GmbH (Munich, Germany). The plates, used in this study, have an area of 25 cm^2 and standardized […] roughness. Transmittance and absorbance measurements were carried out by a SHIMAZDU UV-2600 provided of integrating sphere ISR 2600 60 mm and coupled with a SPF determination software and a PMMA plate with approximately 15 μL of glycerin served as reference.
# In order to evaluate possible activity as sun filters and antioxidants, suitable in the development of novel class of dualistic sunscreens, the synthesized molecules were included at the concentration of 3% (w/w) in a topical formulation. To this end standard oil in water (O/W) formulation was devised, taking into account the absence of any UV filtering and/or antioxidant molecule, in order to obtain a reference formulation. It was not possible to analyze compound 7 in the formulation because of high instability (phase separation induced by 7). Formulations containing the active ingredients were tested for their SPF efficacy by the in vitro method derived from Diffey and Robson[32], in comparison with the same formulation containing the reference PBSA.
# This method is based on the measure of spectral transmission of ultraviolet radiation, with and without the sunscreen applied, through an irregular substrate that simulates the skin surface and permits transmission of UV radiation. Although with some limitation, the test is used to predict SPF in vivo and to screen the filtering activity of new molecules that cannot be tested by in vivo because of lacking of more data concerning safety. The critical wavelength (λc) for the test product is defined as that wavelength where the area under the absorbance spectrum for the irradiated product from 290 nm to λc is 90% of the integral of the absorbance spectrum from 290 nm to 400 nm. Critical wavelength value of greater than 370 nm is necessary, in order to satisfy requirements for broad-spectrum UVB/UVA protection and associated labeling. Polymethylmethacrylate plates (PMMA) with a specific roughness were a satisfactory substrate for this method, because they are UV-transparent, nonfluorescent, photostable and inert to all potential sunscreen formulation ingredients. Table 3 lists the data obtained for the model formulation containing the synthesized compounds. These parameters are necessary to evaluate whether a sunscreen fulfills the requirements for efficacy, and they are SPF, UVA protection factor (UVAPF), UVA/UVB ratio and critical wavelength.
# A set of model formulations was prepared: an oil-in-water emulsion (O/W), without sunscreen molecules (Ref. A, Figure 5), prepared as reference formulation; two formulations containing PBSA or oxisol (12) at 3% were prepared (Ref. C and B, respectively, Figure 5), in order to evaluate the filter properties of oxisol (12). Moreover, as stated earlier, SPF booster properties were assayed on other four formulations including a mix of filters with a theoretical SPF value of 15 and 30, adding 3% of oxisol (12) or PBSA (Ref. E, F, G, H, Figure 5). […]
# NCTC-2544 cells [2] = system: NCTC-2544 cells
# Method: (§2) An immortalized, nontumorigenic cell line of human keratinocytes (NCTC-2544) was grown in a DMEM medium (Sigma-Aldrich Milan, Italy), supplemented with 115 units/mL of penicillin G, 115 μg/mL streptomycin, and 10% fetal calf serum (Invitrogen, Milan, Italy). Individual wells of a 96-well tissue culture microtiter plates (Falcon, Becton–Dickinson) were inoculated with 100 μL of complete medium containing 5 × 10^3 NCTC-2544. The plates were incubated at 37 °C in a humidified (5% CO2) incubator for 18 h prior to the experiments.
# (§3) After medium removal, 100 μL of the drug solution, dissolved in DMSO and diluted in DMEM medium, was added to each well, incubated at 37 °C for 72 h. Final DMSO concentration never exceeded 0.5%. Cell viability was assayed by the MTT (3–(4,5-dimethylthiazol-2-yl)-2,5 diphenyl tetrazolium bromide) test as previously described by Mosmann[27].
# (§4) The tests were conducted using a specific cell line of human keratinocytes (NCTC-2544). To assess cell viability, in the presence of the study compounds, before and after the irradiation, the MTT assay was performed[27]. The cytotoxicity was checked after 72 h from the incubation of the keratinocytes with compounds; moreover, the same experiments were performed in the presence of the parent PBSA.
# NCTC-2544 cells [3] = assay: Cytotoxicity, MTT test, 72 h; settings: read-out: IC50 cytotoxicity; NCTC-2544 human keratinocytes, 72 h, MTT
# Method: as §2, §3, §4
# [4] = Photostability of formulations under solar simulator, HPLC; type: physicochemical; settings: 3% formulation; for Residual product (photostability): 2 mg/cm^2, solar simulator 1 h, HPLC
# Method: (§1) HPLC analysis was performed using an Agilent 1100 Series HPLC System equipped with a G1315A DAD, and with a Hydro-RP C18 Synergi 80 Å column (4.6 × 150 mm, 4 μm) from Phenomenex, maintained at 25 °C during all the time of the analysis. The mobile phase consisted of water (0.01 M H3PO4) (solvent A) and acetonitrile (0.01 M H3PO4) (solvent B). • PBSA and 3: the determination was carried out in isocratic condition, A: 91%/B: 9%. Separation was monitored with absorbance detection at λmax of the molecule ±8 nm. The flow rate was 1.0 mL/min. • […]: the determination was carried out in isocratic condition, A: 84%/B: 16%. Separation was monitored with absorbance detection at λmax of the molecule ±8 nm. The flow rate was 1.0 mL/min
# The solar simulator emission was maintained at 500 W/m^2. A portion of cosmetic formulation containing the sunscreen molecule (3%, w/w) was transferred onto the bottom of a beaker to gain a cosmetic mount of 2 mg/cm^2 and then was irradiated for 1 h with the solar simulator. After irradiation the beaker was removed and its content quantitatively transferred into a 50 mL calibrated flask with methanol and the remaining sunscreen concentration was determined by HPLC as described above. All samples were protected from light both before and after irradiation, the degree of photodegradation was evaluated by comparing the areas of the irradiated samples, with those of the unirradiated preparations.
# Stability and photostability tests were performed only on compounds that as provided with the best antioxidant capacity together with a good photoprotection activity (i.e. 3, and 12). At first, the effective concentration of filtering molecules was verified in the formulation by HPLC. Samples of the formulations (2 mg/cm^2) were spread on a PMMA plate, for each compound including PBSA, and placed under a solar simulator for one hour before repeating HPLC analysis.
# [5] = type: physicochemical
# Method: as §1
# Molecules 3 and 12 were challenged in accelerated stability studies against the parent compound. The formulations were submitted to accelerated aging at 40 °C and analyzed at specific intervals, with HPLC.
IC50 (NCTC-2544 cells [2]) [µM],Residual product (photostability) [4],% of remaining compounds T0 [5] [%],% of remaining compounds T7 [5],% of remaining compounds T14 [5],% of remaining compounds T21 [5],% of remaining compounds T28 [5],% of remaining compounds T35 [5],% of remaining compounds T49 [5],% of remaining compounds T63 [5],degradation rate (photostability) ([4]; solar simulator 1 h),Compound,SPF [1],UVA/UVB [1],UVAPF [1],λc (critical wavelength) [1] [nm],IC50 (NCTC-2544 cells [3]) [µM],SPF of emulsion (Figure 5) ([1]; O/W emulsion with 3% of the molecule only)
> 50,–,–,–,–,–,–,–,–,–,–,"2-(2,4-Dihydroxy-phenyl)-1H-benzimidazole [Compound 9]",3.57 ± 0.23,1.10 ± 0.05,1.89 ± 0.05,380,–,–
–,–,–,–,–,–,–,–,–,–,–,2-(2-Hydroxy-phenyl)-1H-benzimidazole [Compound 10],1.96 ± 0.14,1.01 ± 0.02,1.06 ± 0.08,378,> 50,–
–,–,–,–,–,–,–,–,–,–,–,"O=S(=O)(O)c1ccc2[nH]c(-c3ccc(O)cc3)nc2c1 [Compound 2, 2-(4-Hydroxy-phenyl)-1H-benzimidazole-5-sulfonic acid]",4.74 ± 0.15,0.51 ± 0.01,1.36 ± 0.07,346,–,–
–,94.9% ± 0.8%,100,"96,7%","89,6%","86,3%","73,4%","73,4%","67,6%","64,6%",–,"O=S(=O)(O)c1ccc2[nH]c(-c3ccc(O)c(O)c3)nc2c1 [Compound 3, 2-(3,4-Dihydroxy-phenyl)-1H-benzimidazole-5-sulfonic acid]",9.83 ± 0.64,0.74 ± 0.04,3.63 ± 0.23,358,–,–
–,–,–,–,–,–,–,–,–,–,–,"O=S(=O)(O)c1ccc2[nH]c(-c3ccccc3O)nc2c1 [Compound 4, 2-(2-Hydroxy-phenyl)-1H-benzimidazole-5-sulfonic acid]",2.22 ± 0.13,0.96 ± 0.01,1.06 ± 0.07,355,–,–
–,–,–,–,–,–,–,–,–,–,–,"O=S(=O)(O)c1ccc2[nH]c(-c3ccc(O)cc3O)nc2c1 [Compound 5, 2-(2,4-Dihydroxy-phenyl)-1H-benzimidazole-5-sulfonic acid]",2.18 ± 0.14,1.13 ± 0.01,1.21 ± 0.04,370,–,–
–,–,–,–,–,–,–,–,–,–,–,"O=S(=O)(O)c1ccc2[nH]c(-c3ccc(O)c(O)c3O)nc2c1 [Compound 6, 2-(2,3,4-Trihydroxy-phenyl)-1H-benzimidazole-5-sulfonic acid]",5.99 ± 0.12,0.89 ± 0.03,2.72 ± 0.08,383,–,–
–,–,–,–,–,–,–,–,–,–,–,"Oc1ccc(-c2nc3ccccc3[nH]2)cc1O [Compound 8, 2-(3,4-Dihydroxy-phenyl)-1H-benzimidazole]",5.20 ± 0.20,0.78 ± 0.02,1.90 ± 0.09,368,–,–
–,–,–,–,–,–,–,–,–,–,–,"Oc1ccc(-c2nc3ccccc3[nH]2)c(O)c1O [Compound 11, 2-(2,3,4-Trihydroxy-phenyl)-1H-benzimidazole]",2.85 ± 0.22,0.90 ± 0.01,1.35 ± 0.1,381,–,–
–,98.4% ± 0.9%,100,"95,4%","95,4%","95,1%","92,8%","86,9%","86,9%","86,8%",less than 2%,"O=C(O)c1ccc2[nH]c(-c3ccc(O)c(O)c3)nc2c1 [Compound 12, 2-(3,4-Dihydroxy-phenyl)-1H-benzimidazole-5-carboxylic acid]",2.21 ± 0.17,1.00 ± 0.04,1.88 ± 0.12,370,–,does not present an appreciable value of SPF
–,–,–,–,–,–,–,–,–,–,–,"O=C(O)c1ccc2[nH]c(-c3ccc(O)cc3O)nc2c1 [Compound 13, 2-(2,4-Dihydroxy-phenyl)-1H-benzimidazole-5-carboxylic acid]",2.85 ± 0.17,1.27 ± 0.02,1.58 ± 0.10,368,–,–
–,–,–,–,–,–,–,–,–,–,–,"O=C(O)c1ccc2[nH]c(-c3ccc(O)cc3)nc2c1 [Compound 14, 2-(4-Hydroxy-phenyl)-1H-benzimidazole-5-carboxylic acid]",6.01 ± 0.31,0.70 ± 0.05,2.04 ± 0.11,350,–,–
–,–,–,–,–,–,–,–,–,–,–,"O=C(O)c1ccc2[nH]c(-c3ccc(O)c(O)c3O)nc2c1 [Compound 15, 2-(2,3,4-Trihydroxy-phenyl)-1H-benzimidazole-5-carboxylic acid]",3.69 ± 0.24,0.96 ± 0.08,1.87 ± 0.08,382,–,–

Compound,IC50 (NCTC-2544 cells [2]) [µM],Residual product (photostability) [4],% of remaining compounds T0 [5] [%],% of remaining compounds T7 [5],% of remaining compounds T14 [5],% of remaining compounds T21 [5],% of remaining compounds T28 [5],% of remaining compounds T35 [5],% of remaining compounds T49 [5],% of remaining compounds T63 [5],degradation rate (photostability) ([4]; solar simulator 1 h),SPF [1],UVA/UVB [1],UVAPF [1],λc (critical wavelength) [1] [nm],IC50 (NCTC-2544 cells [3]) [µM],SPF of emulsion (Figure 5) ([1]; O/W emulsion with 3% of the molecule only)
"O=S(=O)(O)c1ccc2[nH]c(-c3ccccc3)nc2c1 [PBSA, 2-phenyl-1H-benzimidazole-5-sulfonic acid, reference compound]",–,96.7% ± 1.8%,100,"99,4%","98,1%","97,2%","96,4%",94%,92%,90%,–,4.56 ± 1.09,0.26 ± 0.05,1.04 ± 0.06,333,–,–
